Tests used:
[1] = target: T1, Human GPR119 (Homo sapiens, UniProt Q8TDV5); test: Human GPR119 activation assay (cAMP, HTRF); type: cell-based; conditions: 1 h, HEK293 cells transiently expressing human GPR119, relative to maximum effect of OEA, read-out: hGPR119 activation ability (cAMP assay) Relative Response % vs OEA; for Emax at 0.001 µM: 1 nM; for Emax at 0.01 µM: 10 nM
T1 construct: host or cells: HEK293 (ATCC)
T1 sequence (Q8TDV5 1-335): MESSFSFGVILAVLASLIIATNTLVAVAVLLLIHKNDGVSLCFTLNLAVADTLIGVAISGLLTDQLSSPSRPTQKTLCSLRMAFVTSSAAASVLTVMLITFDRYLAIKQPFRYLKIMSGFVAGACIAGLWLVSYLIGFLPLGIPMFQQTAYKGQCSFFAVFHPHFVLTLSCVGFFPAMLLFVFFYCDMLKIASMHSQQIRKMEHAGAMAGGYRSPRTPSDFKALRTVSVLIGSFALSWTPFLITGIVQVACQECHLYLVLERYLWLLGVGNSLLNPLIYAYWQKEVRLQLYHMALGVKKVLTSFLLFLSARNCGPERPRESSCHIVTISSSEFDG
How it was run: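 HEK293 cells transiently overexpressing human GPR119 (48 h), pre-treated 10 min then exposed 60 min to compound in KRBH with 11.1 mM glucose, 0.1% BSA and 0.5 mM IBMX. Intracellular cAMP quantified by HTRF; activation expressed as % of maximal oleoylethanolamide effect from multiple-concentration testing.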

[2] = system: C57BL/6 mouse; test: Assessment of glucose tolerance improvement effect in mouse; type: in vivo; conditions: 2 h; 10 mg/kg oral, 30 min before oral glucose 2 g/kg; male C57BL/6 mouse; blood glucose AUC
Procedure: <Experimental Example 2>Assessment of glucose tolerance improvement effect in mouse
As one of anti-diabetic effect indicators, the glucose tolerance improvement effect of the above compounds was evaluated in 7-week male laboratory mouse (C57BL/6 mouse), as the effect of improving postprandial glycemic control ability.
The laboratory mouse was fasted from the day before the experiment for 16-17 hours. The compound of the present invention was orally administered 30 minutes before administrating glucose, and after 30 minutes, a glucose solution (2 g/kg/10 ml) was orally administered. A drug was prepared by suspending in a 10% Gelucire solution. At the times immediately before drug administration, immediately before glucose solution administration, 15 minutes, 30 minutes, 60 minutes, 90 minutes, and 120 minutes after glucose administration, the whole blood glucose levels was measured from tail vein using a blood glucose meter (AccuChek Active, Roche Diagnostics), and the area under the curve of a temporal blood glucose curve was calculated. From the calculated area under the blood glucose curve, the area under the blood glucose curve of a negative control group to which no glucose solution was administered was subtracted, and inhibitory activity against blood glucose increase of a control group to which only the 10% Gelucire solution and glucose solution were administered was calculated as a percentage, thereby evaluating the glucose tolerance improvement efficacy of a drug.
The results are shown in Table 3, in which the glucose tolerance improvement effect represented at a dose of 10 mg/kg was represented by classifying into three groups, under 30%, more than 30% under 40%, and more than 40%. A significant glucose tolerance improvement effect was identified in 22 compounds on which the experiment was carried out, and among those compounds, 16 compounds represented an excellent in vivo activity of 30% inhibitory dose of 10 mg/kg or less. In the following Table 3, A represents an inhibitory activity more than 40%, B represents an inhibitory activity more than 30% under 40% and C represents an inhibitory activity under 30%.

Emax at 0.001 µM [1] | Emax at 0.01 µM [1] | Compound | inhibition in vivo at 10 mg/kg [2]
90.7% | 180% | CC(C)c1nnc(-c2c(F)cc(OCCCC3CCN(c4cnc(Cl)cn4)CC3)cc2F)o1 [Example 51, 2-(4-(3-(1-(5-chloropyrazin-2-yl)piperidin-4-yl)propoxy)-2,6-difluorophenyl)-5-isopropyl-1,3,4-oxadiazole] | > 40%
168% | 266% | Cc1nnc(-c2c(F)cc(OCCCC3CCN(c4nc(C(C)C)no4)CC3)cc2F)o1 [Example 55, 5-(4-(3-(3,5-difluoro-4-(5-methyl-1,3,4-oxadiazol-2-yl)phenoxy)propyl)piperidin-1-yl)-3-isopropyl-1,2,4-oxadiazole] | 30 to 40%
255% | 395% | CC(C)c1noc(N2CCC(CCCOc3cc(F)c(-c4nnc(C(C)C)o4)c(F)c3)CC2)n1 [Example 57, 5-(4-(3-(3,5-difluoro-4-(5-isopropyl-1,3,4-oxadiazol-2-yl)phenoxy)propyl)piperidin-1-yl)-3-isopropyl-1,2,4-oxadiazole] | 30 to 40%

Source: patent US10428055B2, “Substituted piperidines having GPR119 agonistic activity” (DONG-A ST CO., LTD., priority 2014, dated 2019)
